Columns and labels:
NCI-H522 = assay: Antiproliferative activity against human NCI-H522 cells expressing wild-type EGFR/ALK incubated for 48 hrs by CCK8 assay
[1] = Antiproliferative activity against human NCI-H1975 cells expressing EGFR mutation incubated for 48 hrs by CCK8 assay
PC-9 = assay: Antiproliferative activity against human PC-9 cells expressing EGFR mutation incubated for 48 hrs by CCK8 assay
NCI-H2228 = assay: Antiproliferative activity against human NCI-H2228 cells expressing EML4-ALK fusion incubated for 48 hrs by CCK8 assay
BaF3 = assay: Antiproliferative activity against mouse BaF3 cells expressing EML4-ALK fusion incubated for 48 hrs by CCK8 assay
[2] = Metabolic stability in human liver microsomes assessed as half life at 1 uM measured for 60 mins by LC-MS/MS analysis; type: ADME, Microsome
[3] = Metabolic stability in human liver microsomes assessed as clearance at 1 uM measured for 60 mins by LC-MS/MS analysis; type: ADME, Microsome; conditions: read-out: CLH
EML4-ALK = EML4-ALK (Homo sapiens, UniProt Q9UM73); assay: Inhibition of EML4-ALK (unknown origin) phosphorylation by ELISA; type: protein assay
NCI-H1975 [4] = assay: Antitumor activity against human NCI-H1975 cells xenografted in BALB/c-nu mouse at 30 mg/kg, po administered daily orally for 7 days relative to control; type: functional; conditions: time 7 day; for inhibition in vivo at 30 mg/kg: Mus musculus, NCI-H1975, 168 h, read-out: TGI
NCI-H1975 [5] = assay: Antitumor activity against human NCI-H1975 cells xenografted in BALB/c-nu mouse at 15 mg/kg, po administered daily orally for 21 days relative to control; type: functional; conditions: time 21 day, 15 mg/kg, 504 h
NCI-H1975 [6] = assay: Antitumor activity against human NCI-H1975 cells xenografted in BALB/c-nu mouse at 5 mg/kg, po administered daily orally for 21 days relative to control; type: functional; conditions: time 21 day, 5 mg/kg, 504 h
NCI-H1975 [7] = assay: Antitumor activity against human NCI-H1975 cells xenografted in BALB/c-nu mouse at 30 mg/kg, po administered daily orally for 21 days relative to control; type: functional; conditions: time 21 day
NCI-H1975 [8] = assay: Induction of cell cycle arrest in human NCI-H1975 cells assessed as accumulation at S phase at 5 nM incubated for 24 hrs by PI/RNase staining based flow cytometry (reference value: 17.1 %); type: functional
NCI-H1975 [9] = assay: Induction of apoptosis in human NCI-H1975 cells assessed as viable cells at 5 nM incubated for 48 hrs by allo-Phycocyanin-Annexin V staining based flow cytometry (reference value: 93.6 %); type: functional
NCI-H1975 [10] = assay: Induction of cell cycle arrest in human NCI-H1975 cells assessed as accumulation at G0/G1 phase at 5 nM incubated for 24 hrs by PI/RNase staining based flow cytometry (reference value: 50.19 %); type: functional
NCI-H1975 [11] = assay: Induction of apoptosis in human NCI-H1975 cells assessed as necrotic cells at 5 nM incubated for 48 hrs by allo-Phycocyanin-Annexin V staining based flow cytometry (reference value: 0.031 %); type: functional
NCI-H1975 [12] = assay: Induction of apoptosis in human NCI-H1975 cells assessed as late apoptotic cells at 5 nM incubated for 48 hrs by allo-Phycocyanin-Annexin V staining based flow cytometry (reference value: 4.08 %); type: functional
NCI-H1975 [13] = assay: Induction of apoptosis in human NCI-H1975 cells assessed as early apoptotic cells at 5 nM incubated for 48 hrs by allo-Phycocyanin-Annexin V staining based flow cytometry (reference value: 2.27 %); type: functional
NCI-H1975 [14] = assay: Induction of cell cycle arrest in human NCI-H1975 cells assessed as accumulation at G2/M phase at 5 nM incubated for 24 hrs by PI/RNase staining based flow cytometry (reference value: 32.71 %); type: functional

EML4-ALK, sequence (Q9UM73 whole entry): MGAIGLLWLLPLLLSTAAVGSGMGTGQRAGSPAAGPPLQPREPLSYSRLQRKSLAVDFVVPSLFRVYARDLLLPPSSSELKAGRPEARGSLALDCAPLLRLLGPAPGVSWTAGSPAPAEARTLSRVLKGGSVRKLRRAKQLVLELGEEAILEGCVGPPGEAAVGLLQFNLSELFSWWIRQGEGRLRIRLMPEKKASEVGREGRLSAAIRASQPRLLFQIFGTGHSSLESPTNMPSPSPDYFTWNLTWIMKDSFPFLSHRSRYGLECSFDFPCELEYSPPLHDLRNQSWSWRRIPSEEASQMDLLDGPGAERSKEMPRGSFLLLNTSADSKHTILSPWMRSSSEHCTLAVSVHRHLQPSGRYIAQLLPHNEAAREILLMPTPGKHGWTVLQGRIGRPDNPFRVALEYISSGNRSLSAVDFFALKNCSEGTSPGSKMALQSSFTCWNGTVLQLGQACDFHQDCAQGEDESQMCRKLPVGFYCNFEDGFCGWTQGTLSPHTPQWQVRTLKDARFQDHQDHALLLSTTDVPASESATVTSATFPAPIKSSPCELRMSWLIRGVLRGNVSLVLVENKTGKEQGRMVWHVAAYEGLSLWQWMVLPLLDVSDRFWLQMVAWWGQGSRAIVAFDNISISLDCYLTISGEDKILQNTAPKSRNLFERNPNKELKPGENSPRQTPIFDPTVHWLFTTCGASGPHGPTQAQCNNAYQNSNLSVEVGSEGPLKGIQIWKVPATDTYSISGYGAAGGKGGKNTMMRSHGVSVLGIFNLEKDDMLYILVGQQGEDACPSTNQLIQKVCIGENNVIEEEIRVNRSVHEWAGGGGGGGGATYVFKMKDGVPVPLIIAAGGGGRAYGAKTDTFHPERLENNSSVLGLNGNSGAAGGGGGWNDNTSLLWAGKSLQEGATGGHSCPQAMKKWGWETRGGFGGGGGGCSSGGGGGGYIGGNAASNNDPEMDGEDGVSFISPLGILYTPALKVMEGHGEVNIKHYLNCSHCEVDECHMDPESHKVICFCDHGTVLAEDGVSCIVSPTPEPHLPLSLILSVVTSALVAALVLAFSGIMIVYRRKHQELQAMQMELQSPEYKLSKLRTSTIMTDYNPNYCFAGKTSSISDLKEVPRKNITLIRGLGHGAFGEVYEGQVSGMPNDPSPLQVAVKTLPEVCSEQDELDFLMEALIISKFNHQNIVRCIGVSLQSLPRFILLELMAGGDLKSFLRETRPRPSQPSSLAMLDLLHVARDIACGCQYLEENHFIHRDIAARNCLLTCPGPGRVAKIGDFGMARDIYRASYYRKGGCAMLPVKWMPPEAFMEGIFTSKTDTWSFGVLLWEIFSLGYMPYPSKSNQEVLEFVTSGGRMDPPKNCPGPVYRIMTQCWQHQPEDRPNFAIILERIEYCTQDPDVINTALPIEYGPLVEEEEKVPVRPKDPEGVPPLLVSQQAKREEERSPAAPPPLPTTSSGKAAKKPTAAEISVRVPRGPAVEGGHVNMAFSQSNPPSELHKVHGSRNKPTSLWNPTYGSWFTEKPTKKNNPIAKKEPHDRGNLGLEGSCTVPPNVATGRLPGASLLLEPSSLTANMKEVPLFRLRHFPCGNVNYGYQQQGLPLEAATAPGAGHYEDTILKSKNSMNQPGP
EML4-ALK, sequence (Q9HC35 whole entry, further chain): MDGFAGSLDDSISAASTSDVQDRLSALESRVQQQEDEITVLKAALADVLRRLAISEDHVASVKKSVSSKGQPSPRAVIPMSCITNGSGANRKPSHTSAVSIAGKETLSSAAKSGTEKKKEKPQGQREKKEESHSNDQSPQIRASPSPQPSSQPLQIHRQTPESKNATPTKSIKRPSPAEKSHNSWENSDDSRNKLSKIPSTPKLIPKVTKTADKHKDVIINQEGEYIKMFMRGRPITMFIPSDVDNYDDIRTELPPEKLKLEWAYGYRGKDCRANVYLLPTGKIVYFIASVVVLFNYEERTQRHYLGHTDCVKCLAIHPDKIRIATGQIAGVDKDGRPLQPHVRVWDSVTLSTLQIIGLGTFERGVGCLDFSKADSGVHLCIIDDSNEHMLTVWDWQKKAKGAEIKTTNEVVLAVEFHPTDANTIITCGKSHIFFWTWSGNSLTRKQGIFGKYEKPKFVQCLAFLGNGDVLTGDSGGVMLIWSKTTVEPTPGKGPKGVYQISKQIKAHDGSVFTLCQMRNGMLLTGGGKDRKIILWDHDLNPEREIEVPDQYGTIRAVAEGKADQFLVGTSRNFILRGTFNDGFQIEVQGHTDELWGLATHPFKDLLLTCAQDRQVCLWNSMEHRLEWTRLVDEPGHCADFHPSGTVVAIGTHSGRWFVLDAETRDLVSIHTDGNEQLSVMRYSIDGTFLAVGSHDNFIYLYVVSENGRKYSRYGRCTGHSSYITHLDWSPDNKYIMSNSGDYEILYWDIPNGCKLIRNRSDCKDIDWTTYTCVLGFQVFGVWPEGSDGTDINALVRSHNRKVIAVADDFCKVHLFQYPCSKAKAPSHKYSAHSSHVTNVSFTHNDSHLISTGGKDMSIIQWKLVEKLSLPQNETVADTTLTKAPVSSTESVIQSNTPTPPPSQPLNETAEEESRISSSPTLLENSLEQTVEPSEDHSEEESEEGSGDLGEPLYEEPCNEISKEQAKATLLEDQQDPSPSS

SMILES	IC50 (NCI-H522; Homo sapiens, NCI-H522, 48 h) [nM]	IC50 ([1]; Homo sapiens, NCI-H1975, 48 h) [nM]	IC50 (PC-9; Homo sapiens, PC-9, 48 h) [nM]	IC50 (NCI-H2228; Homo sapiens, NCI-H2228, 48 h) [nM]	IC50 (BaF3; Mus musculus, BaF3, 48 h) [nM]	half-life at 1 µM [2] [min]	microsomal CLint at 1 µM [3] [µL/min/mg]	IC50 (EML4-ALK) [nM]	other results
[2H]C([2H])([2H])C([2H])([S+]([O-])c1ccccc1Nc1nc(Nc2cc(NC(=O)C=C)c(N(C)CCN(C)C)cc2OC)ncc1Cl)C([2H])([2H])[2H] (stereo not given)	2730	9.26	45.9	12.5	14.4	31.9	109	10	
C=CC(=O)Nc1cc(Nc2ncc(Cl)c(Nc3ccccc3[S+]([O-])CC)n2)c(OC)cc1N(C)CCN(C)C (stereo not given)		4.3	6.1	43.1	3.6			4.69	
C=CC(=O)Nc1cc(Nc2ncc(Cl)c(Nc3cccc(F)c3[S+]([O-])C(C)C)n2)c(OC)cc1N(C)CCN(C)C (stereo not given)	2490	7.59	2.81	23.8	2.97	32.3	107	5.47	
C=CC(=O)Nc1cc(Nc2ncc(Cl)c(Nc3cccc(Cl)c3[S+]([O-])C(C)C)n2)c(OC)cc1N(C)CCN(C)C (stereo not given)	2380	7.55	4.05	22.5	9.31	37.7	92	7.39	
C=CC(=O)Nc1cc(Nc2ncc(Cl)c(Nc3cccc(Cl)c3[S+]([O-])CC)n2)c(OC)cc1N(C)CCN(C)C (stereo not given)	2420	3.76	< 0.001	54.2	36	52	66.7	7.32	
[2H]C([2H])([2H])C([2H])([2H])[S+]([O-])c1ccccc1Nc1nc(Nc2cc(NC(=O)C=C)c(N(C)CCN(C)C)cc2OC)ncc1Cl (racemic)				29.2		162	21.4	3.72	IC50 (NCI-H522; nci-h522): 4630 nM; IC50 ([1]; nci-h1975): 2.33 nM; IC50 (PC-9; pc-9): 6.32 nM; IC50 (BaF3; baf3): 3.53 nM; inhibition in vivo at 30 mg/kg (NCI-H1975 [4]): 96.8%
C=CC(=O)Nc1cc(Nc2ncc(Cl)c(Nc3cccc(F)c3[S+]([O-])CC)n2)c(OC)cc1N(C)CCN(C)C (stereo not given)	7860	2.79	3.14	66.8	4.03	223	15.5	4.47	inhibition in vivo at 30 mg/kg (NCI-H1975 [4]): 75.3%
[2H]C([2H])([2H])C([2H])([2H])[S+]([O-])c1c(F)cccc1Nc1nc(Nc2cc(NC(=O)C=C)c(N(C)CCN(C)C)cc2OC)ncc1Cl (stereo not given)	5330	9.56	5.13	58.2	7.74	125	27.7	5.59	inhibition in vivo at 30 mg/kg (NCI-H1975 [4]): 85.9%
[2H]C([2H])([2H])C([2H])([S+]([O-])c1c(F)cccc1Nc1nc(Nc2cc(NC(=O)C=C)c(N(C)CCN(C)C)cc2OC)ncc1Cl)C([2H])([2H])[2H] (stereo not given)	2160	17.2	5.56	23.7	16.1	49.1	70.5	2.09	
[2H]C([2H])([2H])C([2H])([2H])[S+]([O-])c1cc(Cl)ccc1Nc1nc(Nc2cc(NC(=O)C=C)c(N(C)CCN(C)C)cc2OC)ncc1Cl (stereo not given)	2710	3.88	3.91	32.4	3.61	50.5	68.7	8.81	
Cc1cc(Nc2ncc(Cl)c(Nc3ccccc3S(=O)(=O)C(C)C)n2)c(OC(C)C)cc1C1CCNCC1 [CERITINIB]	2760	2110	2150	18.3	10.1				
[2H]C([2H])([2H])C([2H])([2H])[S+]([O-])c1ccccc1Nc1nc(Nc2cc(NC(=O)C=C)c(N(C)CCN(C)C)cc2OC)ncc1Cl (single isomer, unassigned; (+))									IC50 (NCI-H522; nci-h522): 6330 nM; IC50 ([1]; nci-h1975): 5.36 nM; IC50 (PC-9; pc-9): 6.88 nM; IC50 (NCI-H2228; nci-h2228): 37.6 nM; TGI (NCI-H1975 [5]): 86.97%; IC50 (BaF3; baf3): 18.3 nM; TGI (NCI-H1975 [6]): 72.01%; TGI (NCI-H1975 [7]; 30 mg/kg, 504 h): 91.87%
COc1cc(N2CCC(N3CCN(C)CC3)CC2)ccc1Nc1ncc(Cl)c(Nc2ccccc2P(C)(C)=O)n1 [BRIGATINIB]	4610	484	983	28.9	7.46				
C=CC(=O)Nc1cc(Nc2ncc(Cl)c(Nc3ccc(Cl)cc3[S+]([O-])C(C)C)n2)c(OC)cc1N(C)CCN(C)C (stereo not given)	1380	3.77	2.53	18.9	2.37	26.3	132	6.81	
C=CC(=O)Nc1cc(Nc2nccc(-c3cn(C)c4ccccc34)n2)c(OC)cc1N(C)CCN(C)C [OSIMERTINIB]	2320	4.16	6.43	1840	327				Activity (NCI-H1975 [8]): 6.87%; Activity (NCI-H1975 [9]): 71.1%; Activity (NCI-H1975 [10]): 65.8%; Activity (NCI-H1975 [11]): 0.032%; Activity (NCI-H1975 [12]): 16.7%; Activity (NCI-H1975 [13]): 12.2%; Activity (NCI-H1975 [14]): 27.24%; TGI (NCI-H1975 [7]): 95.05%; TGI (NCI-H1975 [4]): 94.73%
